Reference: a melting point compilation (Tetko et al.; mined from patent text by program, amines drawn as free bases though some values may be those of a salt)

SMILES	melting point
CC(=O)N1CCc2c(sc3nc(CN4C(=O)CCC4=O)c(Cl)c(-c4ccc(O)cc4)c23)C1	300 °C
COc1ccc(C(=O)C2=C(O)C(=O)N(c3nnc(C(C)C)s3)C2c2ccc(C(C)(C)C)cc2)cc1 (stereo unspecified)	257 °C
CS(=O)(=O)Oc1ccc(-c2sc3cc(OS(C)(=O)=O)ccc3c2C(=O)c2ccc(OCCBr)cc2)cc1	105 to 107 °C
O=C([C@@H]1C[C@@H]2CCCC[C@@H]2N1)N1CCCC1	83 °C
C=C(C)Sc1oc2cc(OCc3ccccc3)ccc2c(=O)c1-c1ccc(OC)cc1	101 to 102 °C
Cc1cc(=O)[nH]c(SCc2ccc(Br)cc2N(C)C)n1	163 to 164 °C
CNC(=O)[C@@H]1C[C@@H](OCC2CC2)CN1S(=O)(=O)c1ccc(Cl)c(COc2cccc3c(-n4ccnc4)cc(C)nc23)c1Cl	98 °C
CCN1CCCC1CNC(=O)c1cccc(N(C2CN(C(c3ccc(Cl)cc3)c3ccc(Cl)cc3)C2)S(C)(=O)=O)c1 (single isomer, unassigned; (+))	122 °C
CC1(C)Oc2ccc(C#N)cc2[C@H](N)[C@@H]1O (relative stereo)	85 to 86 °C
COCCOc1nc2cc(-c3ccc(Cl)cc3)nnc2c2ccccc12	148 to 150 °C
COC(=O)c1cncc(-c2ccc(OC)c(N)c2)c1	98 to 99 °C
Cc1cc(C(=O)N2Cc3cccn3Cc3ccccc32)ccc1C1=CCCc2ccccc21	108 °C
CCCCc1cc(C(N)=O)ccc1OCCCNc1cnn(C(C)C)c(=O)c1Cl	172 to 174 °C
CN(C(=N)Nc1ncccc1OCc1c(F)cccc1F)c1ccc(Cl)cc1	100 to 102 °C
O=C(CN1C(=O)c2ccccc2C1=O)Nc1cccc(OC(F)(F)F)c1	170 °C
COc1cc(CON=C(CCC(=O)O)c2ccccc2)ccc1OCc1nc(-c2ccccc2)oc1C	134 to 135 °C
O=[N+]([O-])c1c(O)ccc2cc(-c3ccc(O)cc3)ccc12	199 to 201 °C
CCOC(=O)Cc1c2c(nn1-c1ccccc1)c(=O)[nH]c1ccccc12	301 to 303 °C
C=C(CC(N)=O)C(=O)O	153 to 154 °C
c1cnc(NCCCNCC2CCc3ccc4c(c3O2)CCCC4)nc1 (stereo unspecified)	57.6 °C
CCOC(=O)CSc1ccc2nncn2n1	130 to 133 °C
COc1cc2c3c(n(C(=O)c4ccccc4)c2cc1OC)CCC(C(=O)O)C3 (stereo unspecified)	191 to 194 °C
CN1C(c2cccc(F)c2)c2ccccc2S1(=O)=O (single isomer, unassigned; (+))	147 °C
O=C(CCCCCCSc1ccccc1)c1ncco1	39 to 40 °C

SMILES	melting point
O=c1c2ccccc2ncn1CCN1CC=C(c2c[nH]c3ccccc23)CC1	132 °C
CC(C)(C)OC(=O)N1C(=O)O[C@@H](c2ccc(F)cc2)[C@H]1Cc1ccc(C(F)(F)F)o1 (racemic)	134 to 135 °C
CC(=O)c1ccc(Cl)cn1	58 to 65 °C
COc1cc(-c2ncnc(C)c2Cl)c(F)cc1Cl	136 to 140 °C
O=C1C=C(c2cc(F)c(Br)cc2F)CC1	129 to 131 °C
O=C1Cc2cccc(Oc3ccccc3)c2O1	60 to 61 °C
COc1ccc(COCc2nnc3n2-c2ccc(Cl)cc2C(c2ccccc2Cl)=NC3)cc1	235 to 237 °C
CCOS(=O)(=O)c1nc2nc(C)cc(Cl)n2n1	166 to 169 °C
O=C1CC(c2ccc(Cl)cc2Cl)c2cc(Br)ccc2O1 (stereo unspecified)	117 to 118 °C
COc1cc2ccc(CC(=O)Cl)cc2cc1OC	51 to 62 °C
CCc1cccc(CC)c1NC(=O)C1c2ccccc2COc2ccc(C(C)C)cc21 (stereo unspecified)	170 °C
NS(=O)(=O)c1ccc(-c2cc3c(cc2-c2ccc(F)cc2)OCO3)cc1	191 to 192 °C
COC(=O)C(=O)c1ccc(C#CCNC(=O)c2ccc3ccccc3c2)cc1	113 to 114 °C
CCOC(=O)CSCc1cc(-c2nn(C)c(C(F)(F)F)c2Cl)c(F)cc1Cl	63 °C
O=C1Nc2ccccc2C12COc1ccc3nonc3c12 (stereo unspecified)	> 220 °C
CCOCc1nc2c(N)nc3cc(-c4cccc(NS(C)(=O)=O)c4)cnc3c2n1CC(C)(C)F	208 to 209 °C
O=C(CN1CCC(Cc2ccccc2)CC1)Nc1cccc(NCc2ccccc2)c1	112 to 114 °C
O=C(O)c1c2c(nc3ccc(F)cc13)-c1ccc(-c3ccccc3C(F)(F)F)cc1CCC2	> 300 °C
CC(=O)CC(=O)NCCNC(=O)OCc1ccccc1	116 to 118 °C
CC(C)(C)c1ccc(Cn2ccc3ccc(-c4ccc(OC(F)(F)F)cc4)cc32)cc1	100 to 102 °C
Cc1c(CC(=O)O)cccc1C(=O)c1ccc(Cl)cc1	152 °C
O=C1CCCc2nc3sccc3c(NCc3ccccc3)c21	159 to 160 °C
COc1ccc(N2CC(=O)N(c3ccc(OC)nc3-c3ccc(N(C)C)cc3)CC2=O)cc1	138 to 139 °C
CC(=O)NC[C@H]1CN(c2ccc3c(c2)C[C@@H](C)N3C(=O)COC(C)=O)C(=O)O1	186 to 187 °C

SMILES	melting point
CN(C)CCn1c2c(c3ccccc31)CCS(=O)(=O)CCC2	154 to 155 °C
COc1ccc(-c2cc(Nn3cnnc3)ccc2C#N)cc1	176 to 177 °C
COc1ccc(S(=O)O)c(OC)c1	89 to 91 °C
O=c1[nH]nc(C(F)(F)F)s1	54 to 55 °C
O=C(O)c1ccc2c(c1)S(=O)c1ccccc1CC2 (stereo unspecified)	261 to 265 °C
O=C1CN(Cc2cnc(-c3ccc(C(CC4CCOCC4)c4ccc(S(=O)(=O)C5CC5)cc4)[nH]3)s2)C(=O)N1 (stereo unspecified)	184 to 185 °C
Cc1cccc(C)c1NC(=O)NCC1(c2ccccc2)CCCC1	201 to 202 °C
CSc1ccc(-c2nc(SC)ccc2-c2ccc(S(C)(=O)=O)cc2)cc1	175 °C
CN(C)CCc1c[nH]c2cc(N(S(=O)(=O)c3cc(Cl)cc(Cl)c3)S(=O)(=O)c3cc(Cl)cc(Cl)c3)ccc12	103 to 107 °C
Oc1ncc(-c2ccc(Cl)cc2)cn1	324 to 327 °C
CCCN(CCC)CC1CCCN(CCNC(=O)N2c3ccccc3NC(=O)c3c2ccn3C)C1 (stereo unspecified)	153 to 155 °C
CN1CCN(c2cccc(Nc3nc4c(-c5ccc(S(C)(=O)=O)cc5)cccn4n3)c2)C(=O)C1	234 to 236 °C
Nc1ccc(F)cc1CS(=O)c1nc2ccccc2[nH]1 (stereo unspecified)	184 to 185 °C
Cc1c(O)ccc(C(=O)c2ccccc2F)c1C	131 to 132 °C
CCCCC(=O)NC(C(=O)OCc1ccccc1)C(C)C (stereo unspecified)	118 to 127 °C
Cc1ccc2nc(C)c(C(=O)NNC(=O)CCl)n2c1	290 to 291 °C
CCNC(=S)N(C)c1cn(-c2cccnc2)nc1Cl	160 to 162 °C
COc1cc(-c2ccc(NC(=O)OC(C)(C)C)cc2)c(C(C)=NOCc2ccc([N+](=O)[O-])cc2)cc1O	91 to 96.8 °C
O=C(O)CCCCc1nc(NCc2ccc3c(c2)OCO3)c2cc(Cl)sc2n1	130 °C
Nc1ccc2oc(-c3cccc(O)c3)cc(=O)c2c1	157 to 159 °C
CCc1oc2ccccc2c1C(=O)c1ccc(Cl)c(S(N)(=O)=O)c1	170 to 172 °C
O=C1N[C@H](Cc2cccc(OCC(F)(F)F)c2)[C@H](c2ccc(F)cc2)O1 (racemic)	148 to 149 °C
C[C@@H]1O[C@@]1(Cn1cncn1)c1cc(F)ccc1F	69 °C
CCOC(=O)N1C(=O)N(C(=O)OCc2ccccc2)C2(C1=O)C(=O)N(Cc1ccc(Cl)c(Cl)c1)c1ccccc12 (stereo unspecified)	128 to 131 °C

SMILES	melting point
N#Cc1cccc(-c2ccc(OCC(CN3C(=O)CCC3=O)N(O)C=O)cc2)c1 (stereo unspecified)	128 °C
Cc1cc(-c2cc(C(F)(F)F)nn2-c2ccc(S(N)(=O)=O)cc2)ccc1-c1cocn1	112 to 114 °C
CCCc1c(OCCCOc2ccc(O)cc2)ccc2c1OC(CCC(=O)O)(CCC(=O)O)CC2=O	160 to 166 °C
C[C@H]1Oc2ccc(F)cc2N(C)C(=O)[C@H]1NC(=O)OC(C)(C)C	129 to 133 °C
CC(C)(C)OC(=O)NC(=O)C(N)OCc1ccccc1 (stereo unspecified)	115 to 120 °C
O=C1CC2(CCC2)C(CC(Cl)(Cl)Cl)O1 (stereo unspecified)	86.5 to 87.5 °C
Cc1ccc2nc(-c3cc(C(F)(F)F)nn3-c3ccc(S(C)(=O)=O)cc3)sc2c1	202 to 204 °C
CCOP(=O)(Cc1nnc2c(=O)[nH]c3c4ccccc4ccc3n12)OCC	195 to 197 °C
N#Cc1ccccc1C(F)(F)C(F)(F)c1ccccc1	84 to 86 °C
CC(C)OC(=O)CSc1ncnc2c(O)n(C)nc12	192 to 194 °C
COC(=O)c1ccc(S(C)(=O)=O)c(C2=NOC(C)(OC)C2)c1Cl (stereo unspecified)	100 to 105 °C
COC(=O)C(C(=O)c1ccc(Cn2ccc3ccc(NC(=O)CC4CCCC4)cc32)c(OC)c1)S(=O)(=O)c1ccccc1 (stereo unspecified)	93 to 98 °C
COc1ccc(N2CCN(c3c(C)c(C)c4c(c3C)CC(C)(C)O4)CC2)cc1F	161 to 163 °C
O=C(O)COc1cc(F)ccc1C(=S)NCc1nc2c(F)c(F)cc(F)c2s1	150 °C
O=c1[nH]nc2n1-c1ccc(N3CCCC3)nc1C(c1ccccc1Cl)=NC2	228 to 230 °C
CC(C)[C@H](N)C(=O)NC(Cc1ccccc1)C(O)C(Cc1ccccc1)NC(=O)[C@@H](NC(=O)OCc1ccccc1)C(C)C (stereo partly specified)	126 to 127 °C
O=C(c1ccc2ccccc2c1)n1c2cc(O)c(O)cc2c2ccc(O)c(O)c21	266 to 270 °C
Nc1ccc(C(Cc2ccccc2)C(=O)O)cc1 (stereo unspecified)	196 to 198 °C
c1csc(-c2cnc(COc3ccc(CCCn4ccnc4)cc3)o2)c1	75 to 76 °C
Nc1cccc2[nH]c3c(c12)CCN(Cc1ccccc1)CC3	164 to 165 °C
CC(=O)c1cc(Cl)sc1SCc1ccccc1	86 to 88 °C
COC(=O)c1cc(-n2cnnn2)ccc1OC	185 to 187 °C
NC(=O)c1nc(-c2cccc(C3=Nc4ccc(-n5cccc5)cc4NC(=O)C3)c2)cs1	267 to 269 °C
CC(=O)Nc1ccc(CCNc2nc(C)nc3sc(C)cc23)cc1	248 °C
